The record followed here is US12624031B2, “Inhibitors of ubiquitin specific peptidase 22 (USP22) and uses thereof for treating diseases and disorders” (Northwestern University, priority 2022, dated 2026).

The subject of data set [1] is polarized CD4+ T-regulatory cells. Nature of the data set: cytotoxicity in polarized CD4+ T-regulatory cells. Type of data set: cell-based, murine. Particulars: for cytotoxicity to Tregs: 156 ng/mL to 5 ug/mL, compared to DMSO controls; for toxicity: Example 5, no concentration given. Here is the method:
FIG. 2: Cytotoxicity of compounds from 156 ng/mL to 5 ug/mL concentration range in polarized CD4+ T-regulatory cells. Murine CD4+ T-cells were isolated and polarized in vitro to T-regulatory cells using 5 ng/mL IL-2, 2 μg/mL anti-IL-4, 2 μg/mL anti-IFNγ, and 1 ng/mL TGFβ. After 48 hours, the inhibitors were added to the cells.
We then synthesized all 17 compounds and validated their cytotoxicity to regulatory T cells. To this end, mouse CD4 T cells were polarized to FoxP3 Tregs for two days, followed by treatment of the cells with each of the compounds at the doses upto 5 ug/ml. […] In addition, the rest of the compounds had poor solubility in DMSO, and were not further tested.

For data set [2], the target named is human GST-USP22 with Sgf11, Sgf73 1-105 and Sus1 (Homo sapiens, UniProt Q9UPT9). Nature of the data set: in vitro USP22 deubiquitination assay (re-constructed deubiquitination module). Type of data set: biochemical. Particulars: for IC50: customized deubiquitination assay, human GST-USP22 with Sgf11, Sgf73 1-105, Sus1, read-out: IC50 in suppressing USP22 in vitro catalytic activity. The protocol: (A) The chemical structure of S02-S106 11-((4-cyanophenyl)amino)-7,8,9,10-tetrahydrobenzo(4,5)imidazole[1,2-b]isoquinoline-6-carbonitrile, (B & C) The efficacy of USP22i-S02 analogs in inhibiting USP22 catalytic activity was determined in vitro. The representative data from a triplicate analysis of S02-S106 with S02 as a control are shown (B). The IC50 of USP22i-S02 analogs in suppressing USP22 in vitro catalytic activity are shown (C). NA, not available.
Chain of human GST-USP22 with Sgf11, Sgf73 1-105 and Sus1 (Q9UPT9 whole entry): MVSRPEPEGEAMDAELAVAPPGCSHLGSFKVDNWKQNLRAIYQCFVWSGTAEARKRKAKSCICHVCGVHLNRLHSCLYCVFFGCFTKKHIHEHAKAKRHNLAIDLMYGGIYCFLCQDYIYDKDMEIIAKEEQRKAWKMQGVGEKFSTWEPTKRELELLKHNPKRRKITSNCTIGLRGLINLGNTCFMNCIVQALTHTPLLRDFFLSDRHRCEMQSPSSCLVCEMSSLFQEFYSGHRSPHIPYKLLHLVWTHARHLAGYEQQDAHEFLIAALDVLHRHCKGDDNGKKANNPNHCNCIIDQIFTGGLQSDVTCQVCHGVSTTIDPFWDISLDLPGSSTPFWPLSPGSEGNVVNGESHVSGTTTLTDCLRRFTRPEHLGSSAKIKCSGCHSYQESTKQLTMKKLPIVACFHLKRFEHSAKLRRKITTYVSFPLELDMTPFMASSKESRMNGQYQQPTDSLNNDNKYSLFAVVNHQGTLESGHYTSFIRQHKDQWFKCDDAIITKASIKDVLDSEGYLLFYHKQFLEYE
Chain of human GST-USP22 with Sgf11, Sgf73 1-105 and Sus1 (Q14CW9 whole entry partner): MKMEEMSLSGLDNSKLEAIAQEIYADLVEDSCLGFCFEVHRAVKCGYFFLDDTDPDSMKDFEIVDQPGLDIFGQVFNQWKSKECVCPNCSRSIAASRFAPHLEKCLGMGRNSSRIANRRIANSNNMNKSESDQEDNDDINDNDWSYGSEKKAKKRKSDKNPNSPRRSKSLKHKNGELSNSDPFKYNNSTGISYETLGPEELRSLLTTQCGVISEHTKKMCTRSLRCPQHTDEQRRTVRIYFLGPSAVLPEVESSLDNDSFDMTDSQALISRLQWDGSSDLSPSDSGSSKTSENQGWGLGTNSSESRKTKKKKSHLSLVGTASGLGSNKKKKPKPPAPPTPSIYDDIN
Chain of human GST-USP22 with Sgf11, Sgf73 1-105 and Sus1 (O15265 1-105 partner limits assumed): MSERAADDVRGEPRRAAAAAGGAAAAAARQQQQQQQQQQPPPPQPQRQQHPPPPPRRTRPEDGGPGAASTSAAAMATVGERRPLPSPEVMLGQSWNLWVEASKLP
Chain of human GST-USP22 with Sgf11, Sgf73 1-105 and Sus1 (Q9NPA8 whole entry partner): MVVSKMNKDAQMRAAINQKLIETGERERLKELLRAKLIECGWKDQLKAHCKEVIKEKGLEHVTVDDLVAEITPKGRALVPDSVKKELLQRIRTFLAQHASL
We purchased human recombinant Sgf11 and Sgf73 1-105 and Sus1 proteins from R&D Systems Inc, and re-constructed the deubiquitination activity with our human GST-USP22. The USP22 customized deubiquitination was optimized and used for in vitro screening the activity of synthetic USP22i-s02 analogs with the USP22i-s02 as a control (FIG. 12).

Data set [3] concerns FoxP3 expression in CD4+ natural T-regulatory cells. Put plainly: FoxP3 expression in natural T-regulatory cells by flow cytometry. In kind it is cell-based, murine. Here is the method: FIGS. 3 and 4: Change in FoxP3 expression in murine CD4+ natural T-regulatory cells. Murine lymphocytes were isolated from the spleens and lymph nodes and cultured with varying concentrations of inhibitor (0.25 μg/mL to 2 μg/mL) or DMSO, anti-CD3, anti-CD28, TGFβ, and IL-2. After two days, lymphocytes were analyzed by flow cytometry for FoxP3 expression in natural T-regulatory (nTregs) gated on CD3+CD4+CD25+FoxP3+. (FIG. 3) Representative histograms of FITC::FoxP3 MFI in nTregs cultured with inhibitors at a concentration of 2 μg/mL. (FIG. 4) Representative plot of FITC::FoxP3 geometric MFI in nTregs across different concentrations of inhibitor.
We then analyzed whether treatment of Tregs with the compounds S106, 107 and 110 inhibits USP22 activity in Tregs as measured by FoxP3 expression levels by flow cytometry.

Data set [4] concerns PD-L1 expression in A549 cells. Nature of the data set: PD-L1 expression in A549 cells by flow cytometry. In kind it is cell-based, human. The protocol: FIG. 13: The effects of USP22i-S02-S106 on suppression of PD-L1 expression on human lung adenocarcinoma cells. Human […] lung adenocarcinoma A549 cells were treated with S02-S106 or its lead compound S02 for 48 hours. The expression levels of PD-L1 were determined by flow cytometry. (A) Representative flow data from A549 cells treated with 2 μM S02-S106 or with 15 μM S02 are shown. DMSO treated cells were used as an untreated control and USP22 CRISPR knockout A549 cells were used as a positive control. (B) The dose-dependent inhibition of PD-L1 expression in A549 cells by S02-S106 with USP22i-S02 as a control. Data were normalized with PD-L1 expression levels in USP22-KO cells as 100% of USP22 inhibition as shown in A. (C) Inhibition of PD-L1 expression in WT and USP22-null A549 cells by S02-S106.
We then used PD-L1 expression level as a measurement to evaluate the inhibitory efficacy of USP22 by S02-S106.
To determine the specificity of USP22i-S02-S106, we treated the WT and USP22-null lung cancer cells.

Consider `N#Cc1ccc(Nc2c3c(c(C#N)c4nc5ccccc5n24)CCCC3)cc1` [Compound S02-S106, 11-((4-cyanophenyl)amino)-7,8,9,10-tetrahydrobenzo(4,5)imidazole[1,2-b]isoquinoline-6-carbonitrile], for which the “cytotoxicity to Tregs” value in data set [1] is reported as “least cytotoxicity”. Also, the toxicity entry was “without increasing its toxicity” in data set [1] and “without increasing the cytotoxicity” in data set [1] (listed as USP22i-S02-S106). The IC50 is 600 nM in data set [2] and roughly 3200 nM in data set [4] (Homo sapiens, A549 cells, 48 hours, read-out: IC50 inhibition of PD-L1 expression). Moreover, the “improvement of USP22i-S02 inhibitory activity” value in data set [2] (cyano group at R1 position of E ring, versus USP22i-S02) is “at least 8 folds”. In data set [2] (in vitro deubiquitination assay), the “USP22 inhibitory activity relative to USP22i-S02” value was “most potent USP22 inhibitory activity”. In addition, in data set [2] (versus S02, in vitro and cell-based studies collectively), the “improvement of inhibitory efficacy” value is 4-8 folds. Moreover, in data set [3] (2 μg/mL, two days), the “decrease of FoxP3 expression in nTregs” value is on record as “higher efficacy compared to usp22i-s02”. In addition, the “FoxP3 expression levels in Tregs” value in data set [3] (concentration of 1-2 ug) is given as “dose dependently reduced”. Also, the “efficacy in suppressing PD-L1 expression” value in data set [4] (A549 cells, S02-S106 at 2 μM versus S02 at 15 μM) is given as “better efficacy than S02 at 15 μM”. For the same molecule, in data set [4] (USP22-null A549 cells), the “PD-L1 expression in USP22-null A549 cells” value is recorded as “did not further reduce PD-L1 expression”. Besides, the “PD-L1 expression in WT A549 cells” value in data set [4] (WT A549 cells) was “dramatically inhibited PD-L1 expression to a level comparable to that of USP22-null A549 cells”.

In the case of `N#Cc1c2c(c(Nc3ccc(CN)cc3)n3c1nc1ccccc13)CCCC2` [Compound S02-S113, (11-((4-aminomethyl)phenyl)amino)-7,8,9,10-tetrahydrobenzo(4,5)imidazole[1,2-b]isoquinoline-6-carbonitrile], in data set [1], the “cytotoxicity to Tregs” value is “modest toxicity” and the toxicity result was “highly toxic”. Further, the half-maximal inhibitory concentration (IC50) in data set [2] worked out at 300 nM.

For `Cn1c2nc3ccccc3c-2c(Nc2ccccc2)c2ccccc21` [Compound S201, N5-methyl-N-phenyl-5H-indolo[2,3-b]quinolin-11-amine], the “cytotoxicity to Tregs” value in data set [1] is listed as “extremely toxic”.

In the case of “N,5-dimethyl-5H-indolo[2,3-b]quinolin-11-amine compound with anisole [Compound S202]”, the “cytotoxicity to Tregs” value in data set [1] is on record as “extremely toxic”.
